Measurements taken from patent US20240083900A1, “PYRAZOLO[1,5-A]PYRAZINE DERIVATIVES AS BTK INHIBITORS” (BIOGEN MA INC., priority 2020, published 2024).
Read-outs that look alike come from different tables or passages of the source.

Experiments:
BTK = BTK (Homo sapiens (Human), UniProt Q06187); assay: In Vitro BTK Kinase Assay: Btk-PolyGAT-LS Assay; format: biochemical; conditions: BTK enzyme 0.25 nM, ATP 10 μM, polyGAT 100 nM, 30 minutes incubation, TRF readout; read-out: IC50
Procedure, shortened: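 Human BTK activity was measured with final 10 μM ATP and 100 nM polyGAT substrate in pH 7.5 Tris buffer with 10 mM MgCl2, DTT, Triton X-100 and casein.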

[1] = system: CD69 expression on CD19+ B cells in human whole blood stimulated with anti-human IgD; assay: In Vitro whole blood CD69 Assay; format: cell-based; conditions: Homo sapiens, B-cell, human heparinized whole blood, anti-human IgD stimulation overnight, percentage of CD19+ B cells expressing CD69, flow cytometry

Sequence of BTK (Q06187 whole entry): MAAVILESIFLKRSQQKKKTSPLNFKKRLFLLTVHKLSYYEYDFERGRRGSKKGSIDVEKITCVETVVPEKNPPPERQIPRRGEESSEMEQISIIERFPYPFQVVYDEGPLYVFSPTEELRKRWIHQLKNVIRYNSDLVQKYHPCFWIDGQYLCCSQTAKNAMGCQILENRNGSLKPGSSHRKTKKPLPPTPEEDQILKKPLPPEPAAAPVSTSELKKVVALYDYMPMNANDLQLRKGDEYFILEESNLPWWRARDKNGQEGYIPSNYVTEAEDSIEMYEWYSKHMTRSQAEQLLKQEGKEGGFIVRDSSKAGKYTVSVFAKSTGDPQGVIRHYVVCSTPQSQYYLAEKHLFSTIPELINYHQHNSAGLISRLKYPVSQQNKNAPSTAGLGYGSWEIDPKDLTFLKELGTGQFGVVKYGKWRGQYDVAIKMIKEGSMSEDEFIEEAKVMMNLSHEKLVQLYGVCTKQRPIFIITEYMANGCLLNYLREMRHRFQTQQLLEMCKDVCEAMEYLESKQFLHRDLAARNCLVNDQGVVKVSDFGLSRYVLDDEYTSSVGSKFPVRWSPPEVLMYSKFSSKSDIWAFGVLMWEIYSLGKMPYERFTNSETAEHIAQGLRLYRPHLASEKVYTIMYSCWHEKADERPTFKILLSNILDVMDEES

Row | SMILES | IC50 (BTK) | IC50 ([1]; read-out: IC50) | IC50 [1]
1 | C=CC(=O)N1CCC[C@@H](Oc2nc(-c3ccc(=O)n(C)c3)cn3nccc23)CC1 (single isomer, unassigned) [Example 71 E2] | 10 to 1000 nM | 1000 to 10000 nM | 
2 | C=CC(=O)N(C1CC1)[C@H]1C[C@@H](Oc2nc(-c3cnn(C)c3)cn3nccc23)C1 [Example 101, N-cyclopropyl-N-((cis)-3-((6-(1-methyl-1H-pyrazol-4-yl)pyrazolo[1,5-a]pyrazin-4-yl)oxy)cyclobutyl)acrylamide] | < 1 nM | 1000 to 10000 nM | 
3 | C=CC(=O)N1CC[C@H]2[C@@H](Oc3nc(-c4cnn(C)c4)cn4nccc34)C(C)(C)[C@H]21 [Example 171, 1-((1S,5R,6R)-7,7-dimethyl-6-((6-(1-methyl-1H-pyrazol-4-yl)pyrazolo[1,5-a]pyrazin-4-yl)oxy)-2-azabicyclo[3.2.0]heptan-2-yl)prop-2-en-1-one] | 10 to 1000 nM | 1000 to 10000 nM | 
4 | CC#CC(=O)N1CC(C)(C)OC(C)(COc2nc(-c3cnn(C)c3)cn3nccc23)C1 (single isomer, unassigned) [Example 121, 1-(2,2,6-trimethyl-6-(((6-(1-methyl-1H-pyrazol-4-yl)pyrazolo[1,5-a]pyrazin-4-yl)oxy)methyl)morpholino)but-2-yn-1-one] | 1 to 10 nM | < 1000 nM | 
5 | C#CC(=O)N1CCC(Oc2nc(-c3cnn(C)c3)cn3nccc23)CC1 [Example 1, 1-[4-[6-(1-methylpyrazol-4-yl)pyrazolo[1,5-a]pyrazin-4-yl]oxy-1-piperidyl]prop-2-yn-1-one] | 1 to 10 nM | > 10000 nM | 
6 | C=CC(=O)NC12CCC(Oc3nc(-c4cnn(C)c4)cn4nccc34)(C1)C2 [Example 98, N-(4-((6-(1-methyl-1H-pyrazol-4-yl)pyrazolo[1,5-a]pyrazin-4-yl)oxy)bicyclo[2.1.1]hexan-1-yl)acrylamide] | < 1 nM | 1000 to 10000 nM | 
7 | C=CC(=O)N1CCCC(Oc2nc(-c3ccnc(OC)c3)cn3nccc23)CC1 (single isomer, unassigned) [Example 72 E1, 1-(4-((6-(2-methoxypyridin-4-yl)pyrazolo[1,5-a]pyrazin-4-yl)oxy)azepan-1-yl)prop-2-en-1-one] | < 1 nM | 1000 to 10000 nM | 
8 | C=CC(=O)NC12CCCC(Oc3nc(-c4cnn(C)c4)cn4nccc34)(C1)C2 [Example 224, N-(5-((6-(1-methyl-1H-pyrazol-4-yl)pyrazolo[1,5-a]pyrazin-4-yl)oxy)bicyclo[3.1.1]heptan-1-yl)acrylamide] | < 1 nM | 1000 to 10000 nM | 
9 | C=CC(=O)N1C[C@H]2C[C@@H](Oc3nc(-c4cnn(C)c4)cn4ncc(C)c34)[C@H]2C1 [Example 197, 1-((1S,5R,6R)-6-((3-methyl-6-(1-methyl-1H-pyrazol-4-yl)pyrazolo[1,5-a]pyrazin-4-yl)oxy)-3-azabicyclo[3.2.0]heptan-3-yl)prop-2-en-1-one] | < 1 nM | < 1000 nM | 
10 | C=CC(=O)N1CCC(C)(COc2nc(-c3cnn(C)c3)cn3nccc23)CC1 [Example 189, 1-(4-methyl-4-(((6-(1-methyl-1H-pyrazol-4-yl)pyrazolo[1,5-a]pyrazin-4-yl)oxy)methyl)piperidin-1-yl)prop-2-en-1-one] | 1 to 10 nM | 1000 to 10000 nM | 
11 | C=CC(=O)N(C)c1ccc(F)c(Oc2nc(-c3cnn(C)c3)cn3nccc23)c1 [Example 130, N-(4-fluoro-3-((6-(1-methyl-1H-pyrazol-4-yl)pyrazolo[1,5-a]pyrazin-4-yl)oxy)phenyl)-N-methylacrylamide] | 1 to 10 nM | 1000 to 10000 nM | 
12 | C=CC(=O)N1CCC[C@H]2[C@@H]1C[C@@]2(C)Oc1nc(-c2cnn(C)c2)cn2nccc12 (single isomer, unassigned) [Example 111] | < 1 nM | < 1000 nM | 
13 | C#CC(=O)N1CCC[C@H](COc2nc(-c3cnn(C)c3)cn3nccc23)C1 [Example 16, (S)-1-(3-(((6-(1-methyl-1H-pyrazol-4-yl)pyrazolo[1,5-a]pyrazin-4-yl)oxy)methyl)piperidin-1-yl)prop-2-yn-1-one] | < 1 nM | < 1000 nM | 
14 | CC#CC(=O)N1CC2(C1)CC(C)(Oc1nc(-c3cnn(C)c3)cn3ncc(F)c13)C2 [Example 86, 1-(6-((3-fluoro-6-(1-methyl-1H-pyrazol-4-yl)pyrazolo[1,5-a]pyrazin-4-yl)oxy)-6-methyl-2-azaspiro[3.3]heptan-2-yl)but-2-yn-1-one] | 1 to 10 nM | < 1000 nM | 
15 | C=CC(=O)N(C)[C@H]1C[C@H](Oc2nc(-c3cnn(C)c3)cn3ncc(C)c23)C1 [Example 60, N-methyl-N-((trans)-3-((3-methyl-6-(1-methyl-1H-pyrazol-4-yl)pyrazolo[1,5-a]pyrazin-4-yl)oxy)cyclobutyl)acrylamide] | < 1 nM | > 10000 nM | 
16 | C=CS(=O)(=O)N1CCC[C@H](Oc2nc(-c3cnn(C)c3)cn3nccc23)CC1 [Example 33, (S)-6-(1-methyl-1H-pyrazol-4-yl)-4-((1-(vinylsulfonyl)azepan-4-yl)oxy)pyrazolo[1,5-a]pyrazine] | 1 to 10 nM | 1000 to 10000 nM | 

Row | SMILES | IC50 (BTK) | IC50 ([1]; read-out: IC50) | IC50 [1]
17 | C=CS(=O)(=O)N1CCC[C@H](COc2nc(-c3cnn(C)c3)cn3nccc23)C1 [Example 15, (S)-6-(1-methyl-1H-pyrazol-4-yl)-4-((1-(vinylsulfonyl)piperidin-3-yl)methoxy)pyrazolo[1,5-a]pyrazine] | 1 to 10 nM | 1000 to 10000 nM | 
18 | C=CC(=O)NC12CCC(Oc3nc(-c4cnn(C)c4)cn4nccc34)(CC1)C2 [Example 125, N-(4-((6-(1-methyl-1H-pyrazol-4-yl)pyrazolo[1,5-a]pyrazin-4-yl)oxy)bicyclo[2.2.1]heptan-1-yl)acrylamide] | 1 to 10 nM | 1000 to 10000 nM | 
19 | Cn1cc(-c2cn3nccc3c(O[C@]3(C)C[C@H](N(C)C(=O)/C=C/C(F)(F)F)C3)n2)cn1 [Example 232, (E)-4,4,4-trifluoro-N-methyl-N-((1s,3s)-3-methyl-3-((6-(1-methyl-1H-pyrazol-4-yl)pyrazolo[1,5-a]pyrazin-4-yl)oxy)cyclobutyl)but-2-enamide] | < 1 nM | < 1000 nM | 
20 | C=CC(=O)N1CCC[C@](F)(COc2nc(-c3cnn(C)c3)cn3nccc23)C1 [Example 187, (R)-1-(3-fluoro-3-(((6-(1-methyl-1H-pyrazol-4-yl)pyrazolo[1,5-a]pyrazin-4-yl)oxy)methyl)piperidin-1-yl)prop-2-en-1-one] | < 1 nM | < 1000 nM | 
21 | CC#CC(=O)N(C)[C@H]1CCC[C@@H](Oc2nc(-c3cnn(C)c3)cn3nccc23)C1 [Example 177, N-methyl-N-((1S,3R)-3-((6-(1-methyl-1H-pyrazol-4-yl)pyrazolo[1,5-a]pyrazin-4-yl)oxy)cyclohexyl)but-2-ynamide] | < 1 nM | < 1000 nM | 
22 | C=CC(=O)N1CC[C@@H]2[C@@H](Oc3nc(-c4cnn(C)c4)cn4nccc34)C(C)(C)[C@@H]21 [Example 169, 1-((1R,5S,6R)-7,7-dimethyl-6-((6-(1-methyl-1H-pyrazol-4-yl)pyrazolo[1,5-a]pyrazin-4-yl)oxy)-2-azabicyclo[3.2.0]heptan-2-yl)prop-2-en-1-one] | 1 to 10 nM | 1000 to 10000 nM | 
23 | C=CC(=O)Nc1cccc(Oc2nc(-c3cnn(C)c3)cc3nccn23)c1 [Example 43] | 1 to 10 nM | < 1000 nM | 
24 | C#CC(=O)N1CC[C@@H](Oc2nc(-c3cnn(C)c3)cc3nccn23)C1 [Example 39, (R)-1-(3-((7-(1-methyl-1H-pyrazol-4-yl)imidazo[1,2-c]pyrimidin-5-yl)oxy)pyrrolidin-1-yl)prop-2-yn-1-one] | 10 to 1000 nM | 1000 to 10000 nM | 
25 | C=CC(=O)N1CCC[C@@H](Oc2nc(-c3cnn(C)c3)cn3nc(N)cc23)CC1 [Example 67, 1-[(4R)-4-[2-amino-6-(1-methylpyrazol-4-yl)pyrazolo[1,5-a]pyrazin-4-yl]oxyazepan-1-yl]prop-2-en-1-one] | < 1 nM | < 1000 nM | 
26 | C=CC(=O)N(C)[C@@H]1C[C@@H](Oc2nc(-c3cnn(C)c3)cn3nccc23)C1(C)C [Example 220, N-((1R,3R)-2,2-dimethyl-3-((6-(1-methyl-1H-pyrazol-4-yl)pyrazolo[1,5-a]pyrazin-4-yl)oxy)cyclobutyl)-N-methylacrylamide] | 1 to 10 nM | 1000 to 10000 nM | 
27 | C=CC(=O)N(C)[C@H]1C[C@](C)(Oc2nc(-c3cnn(C)c3)cn3nccc23)[C@@H]1C (single isomer, unassigned) [Example 109] | 1 to 10 nM |  | < 1000 nM
28 | C=CC(=O)N(C)[C@H]1C[C@@H](Oc2nc(-c3cnn(C)c3)cn3ncc(F)c23)C1 [Example 63, N-((cis)-3-((3-fluoro-6-(1-methyl-1H-pyrazol-4-yl)pyrazolo[1,5-a]pyrazin-4-yl)oxy)cyclobutyl)-N-methylacrylamide] | < 1 nM | > 10000 nM | 
29 | C=CC(=O)N1CCC[C@@H](Oc2nc(-c3cnn(C)c3)cn3ncc(C(F)(F)F)c23)CC1 [Example 62, 1-[(4R)-4-[6-(1-methylpyrazol-4-yl)-3-(trifluoromethyl)pyrazolo[1,5-a]pyrazin-4-yl]oxyazepan-1-yl]prop-2-en-1-one] | 1 to 10 nM | 1000 to 10000 nM | 
30 | CC#CC(=O)N[C@H]1CCC[C@@H](Oc2nc(-c3cnn(C)c3)cn3nccc23)C1 [Example 179, N-((1S,3R)-3-((6-(1-methyl-1H-pyrazol-4-yl)pyrazolo[1,5-a]pyrazin-4-yl)oxy)cyclohexyl)but-2-ynamide] | < 1 nM | < 1000 nM | 
31 | C=CC(=O)N1CC[C@@]2(CC[C@@H](Oc3nc(-c4cnn(C)c4)cn4nccc34)C2)C1 (single isomer, unassigned) [Example 207] | 1 to 10 nM | 1000 to 10000 nM | 
